Tested on: lesional psoriatic skin grafted onto SCID mice
Experiment: SCID mouse psoriatic skin graft model, methotrexate alone or in combination with low dose 5D12
Format: in vivo
Conditions: methotrexate 0.1 to 0.4 mg/kg increasing regimen in combination with the isotype control antibody
Protocol: This experiment was conducted, using the mouse model described in Example 1, to quantitate the anti-psoriatic effects of low doses of anti-CD40 antibody. The low-dose treatment with antibody 5D12 consisted of intraperitoneal injections of mice with 0.5 mg/kg 5D12 every other day for two weeks. High-dose treatment consisted of intraperitoneal injections of mice with 5 mg/kg 5D12 every other day for two weeks. […] The treatment control group consisted of mice injected intraperitoneally with isotype control antibody for two weeks. Four weeks after the termination of the treatments, the grafts were harvested and either fixed in formaldehyde or snap-frozen. Fixed material was used for morphological analyses based on H+E staining, and the snap-frozen material used for additional immunohistochemical analyses.
The effects of methotrexate treatment alone or in combination with low dose (0.5 mg/kg) 5D12 treatment were evaluated. An increasing dosing regimen was chosen, starting with 0.1 mg/kg and increasing the dose by 0.05 mg/kg every week until 0.4 mg/kg was reached. The scheme was combined with the application of the isotype control antibody or with the low dose 5D12 treatment schedule. The isotype control treatment served as a negative control and the low dose 5D12 treatment as a positive control.

Q: `CN(Cc1cnc2nc(N)nc(N)c2n1)c1ccc(C(=O)N[C@@H](CCC(=O)O)C(=O)O)cc1` [Methotrexate] was tested. Which “effects on epidermal thickness (in words)” value did it give?
A: Its value is “only minimal effects on epidermal thickness”.
